Results published in ChEMBL document CHEMBL6134867, “Design and Synthesis of FR-β Targeting Chimeric Molecules for Reprogramming Tumor-Associated Macrophages Using 6-Substituted Pyrrolo[2,3-d]pyrimidines as Targeting Ligands” (J Med Chem, 2025).
Activity calls are given as the source filed them. The rule behind the calls is not given here.

How the values were obtained:
[1] = Stability of the compound in mouse plasma at 5 uM and measured at 37 degC and for up to 12 hrs by HPLC analysis; format: ADME, cell-free
[2] = Stability of the compound in PBS measured at 4 degC and for 15 days; format: physicochemical; settings: time 15 day, read-out: Stability
[3] = Prodrug release assessed as IMDQ formation in presence of 10 mM GSH and measured after 1 to 8 hrs by HPLC analysis; format: ADME; settings: time 1-8 hrs
BMDM [4] = test: Induction of macrophage repolarization in FR-beta expressing IL-4 differentiated M2 phenotype mouse BMDM cells assessed as reprogramming to M1 phenotype by measuring downregulation of CD206 expression at 10 nM incubated for 24 hrs by western blot analysis; format: functional, cell-based
BMDM [5] = test: Induction of macrophage repolarization in FR-beta expressing IL-4 differentiated M2 phenotype mouse BMDM cells assessed as reprogramming to M1 phenotype by measuring downregulation of Arg1 expression at 10 nM incubated for 24 hrs by western blot analysis; format: functional, cell-based
BMDM [6] = test: Induction of macrophage repolarization in FR-beta expressing IL-4 differentiated M2 phenotype mouse BMDM cells assessed as reprogramming to M1 phenotype by measuring upregulation of iNOS expression at 10 nM incubated for 24 hrs by western blot analysis; format: functional, cell-based
BMDM [7] = test: Induction of macrophage repolarization in FR-beta expressing IL-4 differentiated M2 phenotype mouse BMDM cells assessed as reprogramming to M1 phenotype by measuring downregulation of CD206 mRNA expression at 10 nM incubated for 24 hrs by RT-qPCR analysis; format: functional, cell-based
BMDM [8] = test: Induction of macrophage repolarization in FR-beta expressing IL-4 differentiated M2 phenotype mouse BMDM cells assessed as reprogramming to M1 phenotype by measuring downregulation of Arg1 mRNA expression at 10 nM incubated for 24 hrs by RT-qPCR analysis; format: functional, cell-based
BMDM [9] = test: Induction of macrophage repolarization in FR-beta expressing IL-4 differentiated M2 phenotype mouse BMDM cells assessed as reprogramming to M1 phenotype by measuring upregulation of iNOS mRNA expression at 10 nM incubated for 24 hrs by RT-qPCR analysis; format: functional, cell-based
4T1 [10] = test: Cytotoxicity against mouse 4T1 cells assessed as reduction in cell viability incubated for 24 hrs by CCK-8 assay; format: toxicity, cell-based; settings: 4t1, 24 h
[11] = Cytotoxicity against mouse BMDM cells assessed as reduction in cell viability incubated for 24 hrs by CCK-8 assay; format: toxicity, cell-based
HUVEC = test: Cytotoxicity against human HUVEC cells assessed as reduction in cell viability incubated for 24 hrs by CCK-8 assay; format: toxicity, cell-based
4T1 [12] = test: Antitumor activity against mouse 4T1 cells xenografted in BALB/c mouse assessed as inhibition of tumor growth at 1 mg/kg, iv qd for 14 days and measured every day by digital caliper analysis; format: functional, organism-based; settings: time 14.0 day
[13] = Toxicity against BALB/c mouse xenografted with mouse 4T1 cells assessed as effect on body weight at 1 mg/kg, iv qd for 14 days and measured every day; format: organism-based; settings: in vivo, 336 h, time 14 day
Mus musculus [14] = test: In vivo transition from anti-inflammatory to pro-inflammatory phenotypes in BALB/c mouse xenografted with mouse 4T1 cells assessed as decrease in proportion of Ly6C+ and Ly6G+ cells within CD45+ population at 1 mg/kg, iv qd for 14 days by flow cytometry; format: functional, organism-based; settings: time 14.0 day
Mus musculus [15] = test: In vivo transition from anti-inflammatory to pro-inflammatory phenotypes in BALB/c mouse xenografted with mouse 4T1 cells assessed as upregulation in proportion of CD8+ cells at 1 mg/kg, iv qd for 14 days by flow cytometry; format: functional, organism-based; settings: time 14.0 day
Mus musculus [16] = test: In vivo transition from anti-inflammatory to pro-inflammatory phenotypes in BALB/c mouse xenografted with mouse 4T1 cells assessed as CD4+ cells population at 1 mg/kg, iv qd for 14 days by flow cytometry; format: functional, organism-based; settings: time 14.0 day
[17] = Toxicity against BALB/c mouse xenografted with mouse 4T1 cells assessed as pathological changes in heart at 1 mg/kg, iv qd for 14 days by Hematoxylin-Eosin staining based analysis; format: organism-based; settings: in vivo, 336 h, time 14 day
[18] = Toxicity against BALB/c mouse xenografted with mouse 4T1 cells assessed as pathological changes in liver at 1 mg/kg, iv qd for 14 days by Hematoxylin-Eosin staining based analysis; format: organism-based; settings: in vivo, 336 h, time 14 day
[19] = Toxicity against BALB/c mouse xenografted with mouse 4T1 cells assessed as pathological changes in spleen at 1 mg/kg, iv qd for 14 days by Hematoxylin-Eosin staining based analysis; format: organism-based; settings: in vivo, 336 h, time 14 day
[20] = Toxicity against BALB/c mouse xenografted with mouse 4T1 cells assessed as pathological changes in kidney at 1 mg/kg, iv qd for 14 days by Hematoxylin-Eosin staining based analysis; format: organism-based; settings: in vivo, 336 h, time 14 day
[21] = Toxicity against BALB/c mouse xenografted with mouse 4T1 cells assessed as heightened inflammatory response in lung at 1 mg/kg, iv qd for 14 days by Hematoxylin-Eosin staining based analysis; format: organism-based; settings: in vivo, 336 h, time 14 day
BMDM [22] = test: Induction of macrophage repolarization in FR-beta expressing IL-4 differentiated M2 phenotype mouse BMDM cells assessed as reprogramming to M1 phenotype by measuring upregulation of TLR7 expression at 10 nM incubated for 24 hrs by western blot analysis; format: functional, cell-based

CCCCc1nc2c(N)nc3ccccc3c2n1Cc1ccc(CNC(=O)OCCSSC[C@H](NC(=O)CC[C@H](NC(=O)c2ccc(NCc3cnc4nc(N)[nH]c(=O)c4n3)cc2)C(=O)O)C(=O)O)cc1
Stability ([1]; 12 h, 5 µM): Unstable
remaining at 360 h [2]: < 95%
Drug metabolism [3]: metabolite_detected
Activity (BMDM [4]): Active; Less Effective Than Fgt-2,4 Observed
Activity (BMDM [5]): Active; Less Effective Than Fgt-2,4 Observed
Activity (BMDM [6]): Active; Less Effective Than Fgt-2,4 Observed
Activity (BMDM [7]): Active; Less Effective Than Fgt-2,4 Observed
Activity (BMDM [8]): Active; Less Effective Than Fgt-2,4 Observed
Activity (BMDM [9]): Active; Less Effective Than Fgt-2,4 Observed
Activity (4T1 [10]): Non-toxic
Activity [11]: Non-toxic
Activity (HUVEC): Non-toxic
Activity (4T1 [12]): Active
Activity [13]: Non-toxic
Activity (Mus musculus [14]): Active
Activity (Mus musculus [15]): Active
Activity (Mus musculus [16]): inactive
Activity [17]: Non-toxic
Activity [18]: Non-toxic
Activity [19]: Non-toxic
Activity [20]: Non-toxic
Activity [21]: Non-toxic

Nc1nc2[nH]c(CCCCc3ccc(C(=O)N[C@@H](CCC(=O)N[C@@H](CS)C(=O)O)C(=O)O)s3)cc2c(=O)[nH]1
Activity (4T1 [10]): Non-toxic

Nc1nc2[nH]c(CC(=O)NCC(=O)N[C@@H](CCC(=O)N[C@@H](CS)C(=O)O)C(=O)O)cc2c(=O)[nH]1
Activity (4T1 [10]): Non-toxic

Nc1nc(O)c2nc(CNc3ccc(C(=O)N[C@@H](CCC(=O)N[C@@H](CS)C(=O)O)C(=O)O)cc3)cnc2n1
Activity (4T1 [10]): Non-toxic

Nc1nc2[nH]c(CCCCc3ccc(C(=O)N[C@@H](CCC(=O)N[C@@H](CS)C(=O)O)C(=O)O)cc3)cc2c(=O)[nH]1
Activity (BMDM [22]): inactive
Activity (BMDM [4]): inactive
Activity (BMDM [6]): inactive
Activity (4T1 [10]): Non-toxic

CCCCc1nc2c(N)nc3ccccc3c2n1Cc1ccc(CNC(=O)OCCSSC[C@H](NC(=O)CC[C@H](NC(=O)c2ccc(CCCCc3cc4c(=O)[nH]c(N)nc4[nH]3)s2)C(=O)O)C(=O)O)cc1
remaining at 12 h, 5 µM ([1]; read-out: Stability): 95%
remaining at 360 h [2]: > 95%
Drug metabolism [3]: metabolite_detected
Activity (4T1 [10]): Non-toxic
Activity [11]: Non-toxic
Activity (HUVEC): Non-toxic
Activity (4T1 [12]): Active
Activity [13]: Non-toxic
Activity (Mus musculus [14]): Active
Activity (Mus musculus [15]): Active
Activity (Mus musculus [16]): inactive
Activity [17]: Non-toxic
Activity [18]: Non-toxic
Activity [19]: Non-toxic
Activity [20]: Non-toxic
Activity [21]: Non-toxic
